From PubChem BioAssay AID1963960 (Molecular Pharmacology Branch, DTP, NCI, 2024)

Test system: MDA-MB-468 spheroids with HUVEC/MSC, viability
Assay: Anticancer human tumor MDA-MB-468 cell line growth inhibition [PI3K];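 further: spheroids exposed to agents for seven days before readout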;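 on viability, T/C: 100% = DMSO vehicle control viability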
Conditions: for IC50: curve of first compound; for viability, T/C: stronger effect = lower value
Method in brief: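 Agents were dosed from a top concentration near clinical Cmax (otherwise 10 microM) in half-log decrements, alone or combined with PI3K inhibitors. The spheroids contain tumor cells plus endothelial (HUVEC) and MSC stroma; viability is measured.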

[1] = second compound 0.0316 µM, first compound 0.000316 µM
[2] = second compound 0.0316 µM, first compound 0.001 µM
[3] = second compound 0.0316 µM, first compound 0.00316 µM
[4] = second compound 0.0316 µM, first compound 0.01 µM
[5] = second compound 0.0316 µM, first compound 0.0316 µM
[6] = second compound 0.0316 µM, first compound 0.1 µM
[7] = second compound 0.1 µM, first compound 0.000316 µM
[8] = second compound 0.1 µM, first compound 0.001 µM
[9] = second compound 0.1 µM, first compound 0.00316 µM
[10] = second compound 0.1 µM, first compound 0.01 µM
[11] = second compound 0.1 µM, first compound 0.0316 µM
[12] = second compound 0.1 µM, first compound 0.1 µM
[13] = second compound 0.316 µM, first compound 0.000316 µM
[14] = second compound 0.316 µM, first compound 0.001 µM
[15] = second compound 0.316 µM, first compound 0.00316 µM
[16] = second compound 0.316 µM, first compound 0.01 µM
[17] = second compound 0.316 µM, first compound 0.0316 µM
[18] = second compound 0.316 µM, first compound 0.1 µM
[19] = second compound 1 µM, first compound 0.000316 µM
[20] = second compound 1 µM, first compound 0.001 µM
[21] = second compound 1 µM, first compound 0.00316 µM
[22] = second compound 1 µM, first compound 0.01 µM
[23] = second compound 1 µM, first compound 0.0316 µM
[24] = second compound 1 µM, first compound 0.1 µM
[25] = second compound 3.16 µM, first compound 0.000316 µM
[26] = second compound 3.16 µM, first compound 0.001 µM
[27] = second compound 3.16 µM, first compound 0.00316 µM
[28] = second compound 3.16 µM, first compound 0.01 µM
[29] = second compound 3.16 µM, first compound 0.0316 µM
[30] = second compound 3.16 µM, first compound 0.1 µM
[31] = second compound 10 µM, first compound 0.000316 µM
[32] = second compound 10 µM, first compound 0.001 µM
[33] = second compound 10 µM, first compound 0.00316 µM
[34] = second compound 10 µM, first compound 0.01 µM
[35] = second compound 10 µM, first compound 0.0316 µM
[36] = second compound 10 µM, first compound 0.1 µM
[37] = second compound 0.0316 µM, first compound 0.316 µM
[38] = second compound 0.0316 µM, first compound 1 µM
[39] = second compound 0.0316 µM, first compound 3.16 µM
[40] = second compound 0.0316 µM, first compound 10 µM
[41] = second compound 0.1 µM, first compound 0.316 µM
[42] = second compound 0.1 µM, first compound 1 µM
[43] = second compound 0.1 µM, first compound 3.16 µM
[44] = second compound 0.1 µM, first compound 10 µM
[45] = second compound 0.316 µM, first compound 0.316 µM
[46] = second compound 0.316 µM, first compound 1 µM
[47] = second compound 0.316 µM, first compound 3.16 µM
[48] = second compound 0.316 µM, first compound 10 µM
[49] = second compound 1 µM, first compound 0.316 µM
[50] = second compound 1 µM, first compound 1 µM
[51] = second compound 1 µM, first compound 3.16 µM
[52] = second compound 1 µM, first compound 10 µM
[53] = second compound 3.16 µM, first compound 0.316 µM
[54] = second compound 3.16 µM, first compound 1 µM
[55] = second compound 3.16 µM, first compound 3.16 µM
[56] = second compound 3.16 µM, first compound 10 µM
[57] = second compound 10 µM, first compound 0.316 µM
[58] = second compound 10 µM, first compound 1 µM
[59] = second compound 10 µM, first compound 3.16 µM
[60] = second compound 10 µM, first compound 10 µM

CC(C)n1nc(-c2ccc3oc(N)nc3c2)c2c(N)ncnc21 + Cc1nc(NC(=O)N2CCCC2C(N)=O)sc1-c1ccnc(C(C)(C)C(F)(F)F)c1
IC50 (second compound 0.0316 µM): 0.0506 µM
IC50 (second compound 0.1 µM): 0.033 µM
IC50 (second compound 0.316 µM): 0.0245 µM
IC50 (second compound 1 µM): 0.019 µM
IC50 (second compound 3.16 µM): 0.0147 µM
IC50 (second compound 10 µM): < 0.000316 µM
viability, T/C [1]: 88.3%
viability, T/C [2]: 82.8%
viability, T/C [3]: 89.5%
viability, T/C [4]: 101%
viability, T/C [5]: 74.6%
viability, T/C [6]: 14.4%
viability, T/C [7]: 93.7%
viability, T/C [8]: 79.6%
viability, T/C [9]: 85.5%
viability, T/C [10]: 95%
viability, T/C [11]: 51.6%
viability, T/C [12]: 10.8%
viability, T/C [13]: 99.5%
viability, T/C [14]: 94.3%
viability, T/C [15]: 86.2%
viability, T/C [16]: 82.5%
viability, T/C [17]: 40.6%
viability, T/C [18]: 10.7%
viability, T/C [19]: 86.4%
viability, T/C [20]: 75.6%
viability, T/C [21]: 63.6%
viability, T/C [22]: 66.2%
viability, T/C [23]: 42.2%
viability, T/C [24]: 11.8%
viability, T/C [25]: 64.5%
viability, T/C [26]: 58.4%
viability, T/C [27]: 61.1%
viability, T/C [28]: 59.2%
viability, T/C [29]: 31.8%
viability, T/C [30]: 9.62%
viability, T/C [31]: 42.4%
viability, T/C [32]: 21.8%
viability, T/C [33]: 32.1%
viability, T/C [34]: 20.7%
viability, T/C [35]: 18.5%
viability, T/C [36]: 5.69%

CC1(C)CCC(CN2CCN(c3ccc(C(=O)NS(=O)(=O)c4ccc(NCC5CCOCC5)c([N+](=O)[O-])c4)c(Oc4cnc5[nH]ccc5c4)c3)CC2)=C(c2ccc(Cl)cc2)C1 + Cc1nc(NC(=O)N2CCCC2C(N)=O)sc1-c1ccnc(C(C)(C)C(F)(F)F)c1
IC50 (second compound 0.0316 µM): 4.01 µM
IC50 (second compound 0.1 µM): 4.59 µM
IC50 (second compound 0.316 µM): 3.26 µM
IC50 (second compound 1 µM): 3.8 µM
IC50 (second compound 3.16 µM): 2.12 µM
IC50 (second compound 10 µM): < 0.0316 µM
viability, T/C [5]: 93.8%
viability, T/C [6]: 110%
viability, T/C [37]: 85.9%
viability, T/C [38]: 103%
viability, T/C [39]: 61%
viability, T/C [40]: 8.14%
viability, T/C [11]: 85.3%
viability, T/C [12]: 92.4%
viability, T/C [41]: 80.2%
viability, T/C [42]: 104%
viability, T/C [43]: 69.9%
viability, T/C [44]: 8.59%
viability, T/C [17]: 110%
viability, T/C [18]: 105%
viability, T/C [45]: 97.5%
viability, T/C [46]: 88.7%
viability, T/C [47]: 50.2%
viability, T/C [48]: 7.04%
viability, T/C [23]: 99.7%
viability, T/C [24]: 72.3%
viability, T/C [49]: 99.9%
viability, T/C [50]: 85.4%
viability, T/C [51]: 58.1%
viability, T/C [52]: 7.9%
viability, T/C [29]: 77.8%
viability, T/C [30]: 61.8%
viability, T/C [53]: 54%
viability, T/C [54]: 66.3%
viability, T/C [55]: 43.3%
viability, T/C [56]: 9.97%
viability, T/C [35]: 35.2%
viability, T/C [36]: 27.1%
viability, T/C [57]: 35.2%
viability, T/C [58]: 32.4%
viability, T/C [59]: 24.9%
viability, T/C [60]: 8.18%

CCCS(=O)(=O)Nc1ccc(F)c(C(=O)c2c[nH]c3ncc(-c4ccc(Cl)cc4)cc23)c1F + Cc1nc(NC(=O)N2CCCC2C(N)=O)sc1-c1ccnc(C(C)(C)C(F)(F)F)c1
IC50 (second compound 0.0316 µM): 5.12 µM
IC50 (second compound 0.1 µM): 3.97 µM
IC50 (second compound 0.316 µM): 3.55 µM
IC50 (second compound 1 µM): 1.44 µM
IC50 (second compound 3.16 µM): 1.78 µM
IC50 (second compound 10 µM): < 0.0316 µM
viability, T/C [5]: 89.5%
viability, T/C [6]: 95.7%
viability, T/C [37]: 91.2%
viability, T/C [38]: 104%
viability, T/C [39]: 76.8%
viability, T/C [40]: 12.9%
viability, T/C [11]: 92.8%
viability, T/C [12]: 97.5%
viability, T/C [41]: 93.6%
viability, T/C [42]: 97%
viability, T/C [43]: 59.5%
viability, T/C [44]: 11.6%
viability, T/C [17]: 103%
viability, T/C [18]: 86.5%
viability, T/C [45]: 80.5%
viability, T/C [46]: 105%
viability, T/C [47]: 54.6%
viability, T/C [48]: 9.77%
viability, T/C [23]: 113%
viability, T/C [24]: 76.1%
viability, T/C [49]: 63.9%
viability, T/C [50]: 70.8%
viability, T/C [51]: 49.3%
viability, T/C [52]: 9.67%
viability, T/C [29]: 72.3%
viability, T/C [30]: 61%
viability, T/C [53]: 67.9%
viability, T/C [54]: 62.9%
viability, T/C [55]: 36.9%
viability, T/C [56]: 10%
viability, T/C [35]: 43%
viability, T/C [36]: 28.2%
viability, T/C [57]: 36.4%
viability, T/C [58]: 31.1%
viability, T/C [59]: 26.2%
viability, T/C [60]: 7.64%

C[C@@H](NC(=O)c1ncnc(N)c1Cl)c1ncc(C(=O)Nc2cc(C(F)(F)F)c(Cl)cn2)s1 + Cc1nc(NC(=O)N2CCCC2C(N)=O)sc1-c1ccnc(C(C)(C)C(F)(F)F)c1
IC50 (second compound 0.0316 µM): > 10 µM
IC50 (second compound 0.1 µM): > 10 µM
IC50 (second compound 0.316 µM): > 10 µM
IC50 (second compound 1 µM): > 10 µM
IC50 (second compound 3.16 µM): 9.15 µM
IC50 (second compound 10 µM): < 0.0316 µM
viability, T/C [5]: 75.5%
viability, T/C [6]: 109%
viability, T/C [37]: 85.4%
viability, T/C [38]: 117%
viability, T/C [39]: 89.7%
viability, T/C [40]: 82.8%
viability, T/C [11]: 88.4%
viability, T/C [12]: 89.2%
viability, T/C [41]: 86.4%
viability, T/C [42]: 119%
viability, T/C [43]: 95%
viability, T/C [44]: 85.2%
viability, T/C [17]: 107%
viability, T/C [18]: 92.2%
viability, T/C [45]: 78.8%
viability, T/C [46]: 98.3%
viability, T/C [47]: 85.3%
viability, T/C [48]: 68.6%
viability, T/C [23]: 91.9%
viability, T/C [24]: 71.8%
viability, T/C [49]: 72.7%
viability, T/C [50]: 75.7%
viability, T/C [51]: 69.1%
viability, T/C [52]: 61.6%
viability, T/C [29]: 84.7%
viability, T/C [30]: 59.2%
viability, T/C [53]: 74.8%
viability, T/C [54]: 61.4%
viability, T/C [55]: 59.3%
viability, T/C [56]: 46.8%
viability, T/C [35]: 40.2%
viability, T/C [36]: 31.9%
viability, T/C [57]: 39.3%
viability, T/C [58]: 35.4%
viability, T/C [59]: 34%
viability, T/C [60]: 17.1%

Cn1ncnc1[C@H]1c2n[nH]c(=O)c3cc(F)cc(c23)N[C@@H]1c1ccc(F)cc1 + Cc1nc(NC(=O)N2CCCC2C(N)=O)sc1-c1ccnc(C(C)(C)C(F)(F)F)c1
IC50 (second compound 0.0316 µM): > 0.1 µM
IC50 (second compound 0.1 µM): 0.0665 µM
IC50 (second compound 0.316 µM): 0.0429 µM
IC50 (second compound 1 µM): 0.0244 µM
IC50 (second compound 3.16 µM): 0.0042 µM
IC50 (second compound 10 µM): < 0.000316 µM
viability, T/C [1]: 88.3%
viability, T/C [2]: 79.8%
viability, T/C [3]: 84.7%
viability, T/C [4]: 98.3%
viability, T/C [5]: 84%
viability, T/C [6]: 56.3%
viability, T/C [7]: 80.2%
viability, T/C [8]: 93.7%
viability, T/C [9]: 81.9%
viability, T/C [10]: 93%
viability, T/C [11]: 62.7%
viability, T/C [12]: 43%
viability, T/C [13]: 88%
viability, T/C [14]: 76.6%
viability, T/C [15]: 83.7%
viability, T/C [16]: 79.6%
viability, T/C [17]: 52.5%
viability, T/C [18]: 43%
viability, T/C [19]: 94.2%
viability, T/C [20]: 78%
viability, T/C [21]: 62.9%
viability, T/C [22]: 62%
viability, T/C [23]: 46.1%
viability, T/C [24]: 41.4%
viability, T/C [25]: 64.7%
viability, T/C [26]: 60%
viability, T/C [27]: 50.4%
viability, T/C [28]: 46.7%
viability, T/C [29]: 37.6%
viability, T/C [30]: 36.2%
viability, T/C [31]: 35.2%
viability, T/C [32]: 25.9%
viability, T/C [33]: 31.2%
viability, T/C [34]: 26.9%
viability, T/C [35]: 20.3%
viability, T/C [36]: 18.5%
